Measured values from paper PMC12122380 (2025).
One block for each compound: values may come before it.

Experiments:
[1] = system: Pepper (RNA, aptamer) GGCGCACUGGCGCUGCGCCUUCGGGCGCCAAUCGUAGCGUGUCGGCGCC; assay: covalent adduct formation, fluorescence; settings: K+, Mg2+
[2] = system: Pepper (RNA, aptamer) GGCGCACUGGCGCUGCGCCUUCGGGCGCCAAUCGUAGCGUGUCGGCGCC; assay: AE-HPLC of covalent adduct; settings: K+ 150 mM, Mg2+ 2 mM, 50 mM MES pH 6.0, 15% DMSO, 37 °C, 50 µM ligand
[3] = system: Pepper (RNA, aptamer) GGCGCACUGGCGCUGCGCCUUCGGGCGCCAAUCGUAGCGUGUCGGCGCC; assay: AE-HPLC, FT-ICR mass spectrometry of covalent adduct; settings: K+ 150 mM, Mg2+ 2 mM; covalent at G41; 50 mM MES pH 6.0, 37 °C; no crosslinking without Mg2+
[4] = system: Pepper (RNA, aptamer) GGCGCACUGGCGCUGCGCCUUCGGGCGCCAAUCGUAGCGUGUCGGCGCC; assay: fluorescence emission; settings: K+ 100 mM, Mg2+ 2 mM; 50 mM MES pH 6.0; 0.5 µM RNA, 0.5 µM HBC; noncovalent
[5] = system: Tt wt preQ1 RNA aptamer (RNA, riboswitch) CUGGGUCGCAGUAACCCCAGUUAACAAAACAAG; assay: AE-HPLC alkylation kinetics, Michaelis-Menten fit; settings: K+ (KCl); covalent; apparent; MES pH 6.0, 37 °C
[6] = system: Tt C15U preQ1 RNA aptamer (RNA, riboswitch) CUGGGUCGCAGUAAUCCCAGUUAACAAAACAAG; assay: AE-HPLC of covalent adduct; settings: K+ 100 mM, Mg2+ 2 mM, 50 mM MES pH 6.0, 37 °C, 48 h, 125 µM ligand
[7] = system: 155 nt (Szostak) self-biotinylating ribozyme (RNA, ribozyme) GGAGGCACCACGGCUGGAUCCGGUUUAUUAUCAUGAGCCCGACUCGGGCAGCACUGUACAUAAGCUCGGAUGCCAUAGUUUAGACACUAUGGACGUAAAGCCCAUGCUAGGCAAAGACAUUGACUGCAUGAGCGCCGCCUUGGUCAUUAGGAUCG; assay: PAGE, streptavidin blot of covalent adduct; settings: K+ 100 mM, Mg2+ 5 mM, 50 mM HEPES pH 7.4, 37 °C, 1 mM or 50 µM ligand
[8] = system: 58 nt (Liu) self-biotinylating ribozyme (RNA, ribozyme) GGCCGCUCCAGAAGAGGGCCCCCUUGCCCGUUAUCGGGGGCUAGGCUCGAUGUCGGCC; assay: RP-HPLC of covalent adduct; settings: K+ 100 mM, Mg2+ 5 mM, 50 mM HEPES pH 7.4, 37 °C, 2.5 mM ligand
[9] = system: 58 nt (Liu) self-biotinylating ribozyme (RNA, ribozyme) GGCCGCUCCAGAAGAGGGCCCCCUUGCCCGUUAUCGGGGGCUAGGCUCGAUGUCGGCC; assay: PAGE, streptavidin blot of covalent adduct; settings: K+ 100 mM, Mg2+ 5 mM, 50 mM HEPES pH 7.4, 37 °C, 1 mM ligand, 5 h

SMILES: CN(CCCBr)c1ccc(/C=C(\C#N)c2ccc(C#N)cc2)cc1
binding [2]: yes

SMILES: CN(CCCOS(C)(=O)=O)c1ccc(/C=C(\C#N)c2ccc(C#N)cc2)cc1
binding [3]: yes

SMILES: Nc1nc(N)c2c(CNCCCBr)c[nH]c2n1
KM [5]: 0.162 ± 0.016 µM

SMILES: Nc1nc2[nH]cc(CNCCCBr)c2c(=O)[nH]1
binding [6]: yes

SMILES: O=C1N[C@H]2[C@H](CS[C@H]2CCCCC(=O)OCCOCCCCBr)N1
binding [8]: yes
binding [9]: yes

More lines, now with the values ahead:

binding [1]: yes
SMILES: C=Cc1ccc(/C(C#N)=C/c2ccc(N(C)CCCOS(C)(=O)=O)cc2)cc1

binding [4]: yes
SMILES: CN(CCO)c1ccc(/C=C(\C#N)c2ccc(C#N)cc2)cc1

binding [7]: yes
SMILES: O=C(CI)NCCNC(=O)CCCC[C@@H]1SC[C@@H]2NC(=O)N[C@@H]21
